Laboratory results as given in patent US20240043531A1, “ANTI-CD47 MONOCLONAL ANTIBODY AND USE THEREOF” (Akeso Biopharma, Inc., priority 2021, published 2024).

Columns and labels:
[1] = system: acute myelocytic leukemia (AML) HL-60 cells; assay: ADCP: phagocytosis of HL-60 cells by HPMMs, combination with azacitidine; type: cell-based, human; settings: HPMMs effector, HL-60 target cells treated with azacitidine 3 μM or 1 μM for 24 h; antibodies 10 μg/mL and 1 μg/mL; FIG. 2
Description: Materials: Azacitidine (purchased from Baxter Oncology GmbH); Hu5F9-G4 (supplied by Akeso Biopharma, Inc.); Raji cells (Chinese Academy of Sciences Shanghai Branch); HL-60 cells (ATCC); RPMI 1640 (Gibco, Cat. No: 22400-105); pancreatin (0.25% Typsin-EDTA (1×)) (Gibco, Cat. No: 25200072); fetal bovine serum (FBS; Excell bio, Cat. No: FSP500); fluorescent dye […] diacetatesuccinimidyl ester (CFSE; Biolegend, Cat. No: 423801); recombinant human macrophage colony-stimulating factor (human M-CSF; PeproTech, Cat. No: 300-25); APC anti-human CD11c antibody (Biolegend, Cat. No: 301614); isotype control (human IgG4; supplied by Akeso Biopharma, Inc.); rituximab (Roche); BSA (Sigma, Cat. No: V900933-1KG); Ficoll paque plus (GE, Cat. No: 17-1440-02). Human peripheral monocyte-derived macrophages (HPMMs) were prepared by inducing PBMCs. Frozen PBMCs were conventionally thawed and incubated in an incubator overnight. […]
Procedures: HL-60 cells were conventionally collected and plated in a 6-well plate at 4×10^5 cells/2 mL of 1640 complete medium per well. […] The next day, the treated and blank HL-60 cells were collected, centrifuged at 170×g for 5 min, resuspended and counted. Then the cells were analyzed for viability and washed once with PBS. […]

[2] = system: hematological malignancies and solid tumors; settings: Chao M P et al., 2016; cited from earlier work
[3] = system: human Burkitt's lymphoma Raji-PDL1 cells; assay: Immune cell activation: PBMCs co-cultured with Raji-PDL1 cells, cytokine ELISA; type: cell-based; settings: SEB-activated PBMCs + MMC-treated Raji-PDL1 cells, 3 days; FIG. 3
[4] = system: CT26-hCD47 cells (mouse colon cancer cells); assay: CT26-hCD47 tumor model in BALB/c-hPD1/hSIRPα mice, tumor volume; type: in vivo; settings: 6F7H1L1(hG4) 5 mg/kg, cadonilimab 0.5 mg/kg, intraperitoneally twice per week for 4 weeks, 7 doses; vs isotype control hIgG4; FIG. 9
Description: (§1) In order to determine the tumor inhibitory activity in vivo of 6F7H1L1(hG4) antibody in combination with anti-PD-1/anti-CTLA-4 bispecific antibody cadonilimab, female BALB/c-hPD1I/hSIRPα mice aged 6.43-8.43 weeks (purchased from GemPharmatech Co., Ltd.) were grafted subcutaneously with CT26-hCD47 cells (mouse colon cancer cells, purchased from GemPharmatech Co., Ltd.). When the mean tumor volume reached 80-120 mm^3, the mice were randomized into 4 groups of 6 by tumor volume. The day of grouping was defined as D0, and dosing was started on the day of grouping D0. The regimen of the combination therapy group is as follows: the drugs were formulated separately and administered sequentially (no certain order or time interval was required, and one treatment should be given after the completed administration of the other). After the administration, the length and width of tumors in each group were measured, and the tumor volume was calculated. The data were subjected to an independent sample T-test, SPSS 17.0 *P<0.05, **P<0.01.

[5] = CT26-hCD47 tumor model, tolerability and body weight; type: in vivo; settings: 6F7H1L1(hG4) 5 mg/kg, cadonilimab 0.5 mg/kg, i.p.; FIG. 10
Description: as §1

[6] = system: Raji cells; assay: ADCP: phagocytosis of Raji cells by HPMMs, combination with obinutuzumab; type: cell-based, human; settings: HPMMs effector, Raji target cells, 37° C. 2 h; FIG. 8
Method: PBMCs (prepared by Akeso Biopharma, Inc., Lot No: 20201126-G) were thawed and incubated with 1640 complete medium+10% FBS (Excell bio, Cat. No: FSP500, Lot No: 11I025) overnight. The next day, the medium was changed to 1640 complete medium+2% FBS, and the cells were incubated with the medium for 2 h. The supernatant was removed, and the cells were washed twice with PBS and incubated in an incubator (90% 1640+10% FBS+M-CSF-100 ng/mL) to induce […] (HPMMs). The medium was exchanged and the treatment was given on days 3 and 5. The experiment was performed on day 7 of induction.
Raji cells (purchased from ATCC) were conventionally collected and washed once with PBS. CFSE was diluted to 2.5 μM with PBS. The cells were resuspended in a proper amount of the diluted CFSE to a staining density of 1×10^7 cells/mL and incubated in an incubator for 20 min. 6 mL of 1640 complete medium (containing 10% FBS) was added to stop staining. The cells were centrifuged at 170×g for 5 min, and the supernatant was discarded. 1 mL of 1640 complete medium was added, and the cells were incubated in an incubator for 10 min with the cell density adjusted to 3×10^6 cells/mL. […] 200 μL of 1% PBSA was added to each tube for resuspension, and the cells were transferred to a flow cytometry tube and detected.

## Hu5F9-G4: anti-CD47 monoclonal antibody drug, positive control; heavy chain SEQ ID NO: 85, light chain SEQ ID NO: 86
[1]
  phagocytic index (ADCP): significantly higher than those of the blank control and the isotype control (human IgG4)
[2]
  inhibition of growth and metastasis of tumors in preclinical studies: effectively inhibits the growth and metastasis of hematological malignancies and solid tumors

## cadonilimab: anti-PD-1/CTLA-4 bispecific antibody; heavy chain SEQ ID NO: 78, light chain SEQ ID NO: 80 [reference compound]
[3]
  secretion of IFN-γ in PBMCs: can significantly stimulate the secretion of IFN-γ
[4]
  inhibition of tumor growth (tumor volume): can effectively inhibit the growth of tumors in mice
[5]
  tolerability in tumor-bearing mice: well tolerated

## obinutuzumab: anti-human CD20 antibody [reference compound]
[6]
  phagocytic index (ADCP): significantly higher than those of the blank control and the isotype controls (human IgG4 and human IgG1)
